# Results as given in patent publication US20140221378A1, “SUBSTITUTED SPIROPYRIDO[1,2-a]PYRAZINE DERIVATIVE AND PHARMACEUTICAL USE OF SAME AS HIV INTEGRASE INHIBITOR” (priority 2012, published 2014).
# Structures can show the parent of a compound that is named as a salt. Where two headings read alike, the source gives them in different places.
# Test system: HIV-1 NL4-3 strain
# Assay: Antiviral activity in acute infection system of MT-4 cell with HIV-1 NL4-3 strain (Cell Titer-Glo)
# Type: cell-based
# [1] = antiviral activity, MT-4 cells infected with HIV-1 NL4-3 strain, MOI 0.05, 5 days culture, Cell Titer-Glo luminescence, read-out: EC50
molecule,measurement,setting,value
"CO[C@H]1C[C@]2(CN(C)C(=O)c3c(O)c(=O)c(C(=O)NCc4cccc(Cl)c4F)cn32)C1 [Example 1, N-(3-chloro-2-fluorobenzyl)-9′-hydroxy-cis-3-methoxy-2′-methyl-1′,8′-dioxo-1′,2′,3′,8′-tetrahydrospiro[cyclobutane-1,4′-pyrido[1,2-a]pyrazine]-7′-carboxamide hydrochloride]",EC50,"Human immunodeficiency virus 1, NL43, MT4, 120 h, antiviral activity, MT-4 cells infected with HIV-1 NL4-3 strain, MOI 0.05, 5 days culture, Cell Titer-Glo luminescence",3.1 nM
"cis-3-(benzyloxy)-N-(2,4- difluorobenzyl)-9′-hydroxy- 2′-isopropyl-1′,8′-dioxo- 1′,2′,3′,8′- tetrahydrospiro[cyclobutane- 1,4′-pyrido[1,2-a]pyrazine]- 7′-carboxamide hydrochloride [Example S2]",EC50,[1],10 nM
"CO[C@H]1C[C@]2(Cn3cc(C(=O)NCc4cccc(Cl)c4F)c(=O)c(O)c3C(=O)N2C)C1 [Example S63, N-(3-chloro-2-fluorobenzyl)-9′-hydroxy-cis-3-methoxy-2′-methyl-1′,8′-dioxo-1′,2′,4′,8′-tetrahydrospiro[cyclobutane-1,3′-pyrido[1,2-a]pyrazine]-7′-carboxamide hydrochloride]",EC50,"Human immunodeficiency virus 1, NL43, MT4, 120 h, antiviral activity, MT-4 cells infected with HIV-1 NL4-3 strain, MOI 0.05, 5 days culture, Cell Titer-Glo luminescence, read-out: EC50",4 nM
"CCN1C[C@@]2(C[C@@H]2COC)n2cc(C(=O)NCc3cccc(C(F)(F)F)c3F)c(=O)c(O)c2C1=O [Example T27, (1S, 2S)-2′-ethyl-N-(2-fluoro-3-(trifluoromethyl)benzyl)-9′-hydroxy-2-(methoxymethyl)-1′,8′-dioxo-1′,2′,3′,8′-tetrahydrospiro[cyclopropane-1,4′-pyrido[1,2-a]pyrazine]-7′-carboxamide]",EC50,"Human immunodeficiency virus 1, NL43, MT4, antiviral activity, MT-4 cells acutely infected with HIV-1 NL4-3 strain (wild type), Cell Titer-Glo, read-out: EC50",97 nM
"N-(3-chloro-2-fluorobenzyl)- 2′-ethyl-9′-hydroxy-trans-3- (hydroxymethyl)-1′,8′-dioxo- 1′,2′,4′,8′- tetrahydrospiro[cyclobutane- 1,3′-pyrido[1,2-a]pyrazine]- 7′-carboxamide hydrochloride [Example S58]",EC50,[1],6.8 nM
